# According to patent US20110112135A1, “Imidazo [1,2-A] Pyridine Compounds” (priority 2007, published 2011):
# What was measured:
# human LXRα = target: T1, human LXRα (Homo sapiens, UniProt Q13133); assay: Ligand-binding test procedure for human LXRα (3H T0901317 tracer, flash plates); conditions: biotinylated hLXRα from E. coli extract; tracer 3H T0901317
# T1 construct: biotin (biotinylated); made in house; host or cells: E. coli (crude extract)
# T1 sequence (Q13133 1-447): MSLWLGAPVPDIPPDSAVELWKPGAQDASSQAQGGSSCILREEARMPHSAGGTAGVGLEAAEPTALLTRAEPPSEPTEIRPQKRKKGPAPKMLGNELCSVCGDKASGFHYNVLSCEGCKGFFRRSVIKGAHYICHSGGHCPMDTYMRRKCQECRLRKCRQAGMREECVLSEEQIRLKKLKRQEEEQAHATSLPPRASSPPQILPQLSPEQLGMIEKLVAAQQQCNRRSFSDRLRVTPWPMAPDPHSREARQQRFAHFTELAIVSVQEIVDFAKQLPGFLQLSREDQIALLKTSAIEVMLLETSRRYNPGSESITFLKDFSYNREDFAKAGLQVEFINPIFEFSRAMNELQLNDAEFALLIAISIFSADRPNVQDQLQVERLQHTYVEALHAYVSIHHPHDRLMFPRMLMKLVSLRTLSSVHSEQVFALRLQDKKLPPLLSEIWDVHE
# Description: II. Ligand-Binding Test Procedure for Human LXRα.
# Receptor source: E. coli extract from cells expressing biotinylated hLXRα. Extract was made in a similar buffer as above, but with 50 mM TRIS.
# (§1) Washed streptavidin and coated flash plates with wash buffer. Diluted receptor extract to give Bmax ˜4000 cpm and add to the wells. Wrapped the plates in aluminum foil and stored them at +4° C. over night.
# (§2) Made a dilution series in DMSO of the test ligands. Made a 5 nM solution of the radioactive tracer in buffer. Mixed 250 μl diluted tracer with 5 μl of the test ligand from each concentration of the dilution series. Washed the receptor-coated flash plates. Added 200 μl per well of the ligand/radiolabel mixture to the receptor-coated flash plates. Wrapped the plates in aluminum foil and incubate at +4° C. over night.
# (§3) Aspirated wells, and wash the flashed plates. Sealed the plate. Measured the remaining radioactivity in the plate.
# human LXRβ = target: T2, human LXRβ (Homo sapiens, UniProt P55055); assay: Ligand-binding test procedure for human LXRβ (3H T0901317 tracer, flash plates); conditions: biotinylated hLXRβ from E. coli extract; tracer 3H T0901317
# T2 construct: biotin (biotinylated); made in house; host or cells: E. coli (crude extract)
# T2 sequence (P55055 1-460): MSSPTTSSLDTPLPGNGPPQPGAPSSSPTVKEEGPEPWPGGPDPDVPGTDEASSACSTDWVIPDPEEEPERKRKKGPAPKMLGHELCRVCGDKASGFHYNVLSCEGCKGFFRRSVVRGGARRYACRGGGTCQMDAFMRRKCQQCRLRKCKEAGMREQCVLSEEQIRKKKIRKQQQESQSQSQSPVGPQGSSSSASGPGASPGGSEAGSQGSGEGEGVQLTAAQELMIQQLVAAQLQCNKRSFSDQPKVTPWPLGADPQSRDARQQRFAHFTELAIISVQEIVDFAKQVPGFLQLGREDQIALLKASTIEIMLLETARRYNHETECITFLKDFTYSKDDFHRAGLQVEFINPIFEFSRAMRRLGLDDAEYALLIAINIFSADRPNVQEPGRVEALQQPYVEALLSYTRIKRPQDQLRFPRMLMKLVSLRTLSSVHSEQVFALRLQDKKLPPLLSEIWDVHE
# Description: I. Ligand-Binding Test Procedure for Human LXRβ.
# Receptor source: E. coli extract from cells expressing biotinylated hLXRβ. Extract was made in a similar buffer as above, but with 50 mM TRIS.
# as §1, §2, §3
SMILES,IC50 (human LXRα),IC50 (human LXRβ)
"CCc1nc2c(C(F)(F)F)cccn2c1-c1cccc(Oc2cccc(S(C)(=O)=O)c2)n1 [Example 88, 2-ethyl-3-{6-[3-(methylsulfonyl)phenoxy]pyridin-2-yl}-8-(trifluoromethyl)imidazo[1,2-a]pyridine]",> 1000 nM,> 1000 nM
"CC(C)c1nc2c(C(F)(F)F)cccn2c1-c1cccc(Oc2cccc(S(C)(=O)=O)c2)n1 [Example 89, 2-isopropyl-3-{6-[3-(methylsulfonyl)phenoxy]pyridin-2-yl}-8-(trifluoromethyl)imidazo[1,2-a]pyridine]",> 1000 nM,> 1000 nM
"CCc1nc2c(C(F)(F)F)cccn2c1-c1ccc(-c2ccc(S(=O)(=O)C(C)C)cc2)cc1 [Example 92, 2-ethyl-3-(4′-(isopropylsulfonyl)biphenyl-4-yl)-8-(trifluoromethyl)imidazo[1,2-a]pyridine]",> 1000 nM,1590 nM
"CCc1nc2c(C(F)(F)F)cccn2c1-c1ccc(-c2ccc(S(C)(=O)=O)cc2)cc1 [Example 93, 2-ethyl-3-(4′-(methylsulfonyl)biphenyl-4-yl)-8-(trifluoromethyl)imidazo[1,2-a]pyridine]",> 1000 nM,4080 nM
"CC(C)c1nc2c(C(F)(F)F)cccn2c1-c1ccc(-c2ccc(S(C)(=O)=O)cc2)cc1 [Example 94, 2-isopropyl-3-(4′-(methylsulfonyl)biphenyl-4-yl)-8-(trifluoromethyl)imidazo[1,2-a]pyridine]",> 1000 nM,> 1000 nM
"CCc1nc2c(C(F)(F)F)cccn2c1-c1ccc(-c2cccc(S(C)(=O)=O)c2)cc1 [Example 95, 2-ethyl-3-(3′-(methylsulfonyl)biphenyl-4-yl)-8-(trifluoromethyl)imidazo[1,2-a]pyridine]",2640 nM,135 nM
"CC(C)c1nc2c(Cl)cccn2c1-c1cccc(Oc2ccc(S(N)(=O)=O)cc2)c1 [Example 99, 4-[3-(8-chloro-2-isopropylimidazo[1,2-a]pyridin-3-yl)phenoxy]benzenesulfonamide]",> 1000 nM,> 1000 nM
"CCc1nc2c(C(F)(F)F)cccn2c1-c1ccc(Cc2cccc(S(C)(=O)=O)c2)cc1 [Example 101, 2-ethyl-3-{4-[3-(methylsulfonyl)benzyl]phenyl}-8-(trifluoromethyl)imidazo[1,2-a]pyridine]",> 1000 nM,> 1000 nM
"CCc1nc2c(C(F)(F)F)cccn2c1-c1ccc(Oc2cccc(S(C)(=O)=O)c2)cc1 [Example 102, 2-ethyl-3-{4-[3-(methylsulfonyl)phenoxy]phenyl}-8-(trifluoromethyl)imidazo[1,2-a]pyridine]",> 1000 nM,336 nM
"CCc1nc2c(Cl)cccn2c1-c1ccc(Oc2cccc(S(C)(=O)=O)c2)cc1 [Example 103, 8-chloro-2-ethyl-3-{4-[3-(methylsulfonyl)phenoxy]phenyl}imidazo[1,2-a]pyridine]",> 1000 nM,417 nM
"CCc1nc2c(C(F)(F)F)cccn2c1-c1ccc(Oc2cccc(S(=O)(=O)CC)c2)cc1 [Example 105, 2-ethyl-3-{4-[3-(ethylsulfonyl)phenoxy]phenyl}-8-(trifluoromethyl)imidazo[1,2-a]pyridine]",> 1000 nM,230 nM
"CCc1nc2c(Cl)cccn2c1-c1ccc(Oc2cccc(S(=O)(=O)CC)c2)cc1 [Example 106, 8-chloro-2-ethyl-3-{4-[3-(ethylsulfonyl)phenoxy]phenyl}imidazo[1,2-a]pyridine]",> 1000 nM,430 nM
"CCc1nc2c(Cl)cccn2c1-c1cccc(COc2cccc(S(C)(=O)=O)c2)c1 [Example 109, 8-chloro-2-ethyl-3-(3-{[3-(methylsulfonyl)phenoxy]methyl}phenyl)imidazo[1,2-a]pyridine]",> 1000 nM,268 nM
"CCc1nc2c(C(F)(F)F)cccn2c1-c1ccc(COc2cccc(S(C)(=O)=O)c2)cc1 [Example 111, 2-ethyl-3-(4-{[3-(methylsulfonyl)phenoxy]methyl}phenyl)-8-(trifluoromethyl)imidazo[1,2-a]pyridine]",> 1000 nM,> 1000 nM

# Continued, values first:
IC50 (human LXRα),IC50 (human LXRβ),SMILES
> 1000 nM,> 1000 nM,"CC(C)c1nc2c(C#N)cccn2c1-c1cccc(Oc2cccc(CS(C)(=O)=O)c2)c1 [Example 115, 2-isopropyl-3-(3-{3-[(methylsulfonyl)methyl]phenoxy}phenyl)imidazo[1,2-a]pyridine-8-carbonitrile]"
> 1000 nM,970 nM,"CC(C)(C)c1nc2c(C#N)cccn2c1-c1cccc(Oc2cccc(CS(C)(=O)=O)c2)c1 [Example 116, 2-tert-butyl-3-(3-{3-[(methylsulfonyl)methyl]phenoxy}phenyl)imidazo[1,2-a]pyridine-8-carbonitrile]"
> 1000 nM,460 nM,"CC(C)c1nc2c(Cl)cccn2c1-c1cccc(Oc2cccc(CS(C)(=O)=O)c2)c1 [Example 117, 8-chloro-2-isopropyl-3-(3-{3-[(methylsulfonyl)methyl]phenoxy}phenyl)imidazo[1,2-a]pyridine]"
> 1000 nM,> 1000 nM,"CCc1nc2c(C#N)cccn2c1-c1cccc(Oc2cccc(CS(C)(=O)=O)c2)c1 [Example 118, 2-ethyl-3-(3-{3-[(methylsulfonyl)methyl]phenoxy}phenyl)imidazo[1,2-a]pyridine-8-carbonitrile]"
> 1000 nM,460 nM,"CC(C)c1nc2c(Cl)cccn2c1-c1ccc(Oc2cccc(S(C)(=O)=O)c2)cc1 [Example 121, 8-chloro-2-(1-methylethyl)-3-{4-[3-(methylsulfonyl)phenoxy]phenyl}imidazo[1,2-a]pyridine]"
> 1000 nM,345 nM,"CCS(=O)(=O)c1cccc(Oc2ccc(-c3c(C(C)C)nc4c(Cl)cccn34)cc2)c1 [Example 122, 8-chloro-3-{4-[3-(ethylsulfonyl)phenoxy]phenyl}-2-(1-methylethyl)imidazo[1,2-a]pyridine]"
> 1000 nM,230 nM,"Cc1nccn1Cc1nc2c(C(F)(F)F)cccn2c1-c1cccc(Oc2cccc(S(C)(=O)=O)c2)c1 [Example 130, 2-[(2-methyl-1H-imidazol-1-yl)methyl]-3-{3-[3-(methylsulfonyl)phenoxy]phenyl}-8-(trifluoromethyl)imidazo[1,2-a]pyridine]"
> 1000 nM,> 1000 nM,"CN(C)Cc1nc2c(C(F)(F)F)cccn2c1-c1cccc(Oc2cccc(S(C)(=O)=O)c2)c1 [Example 137, N,N-dimethyl-1-[3-{3-[3-(methylsulfonyl)phenoxy]phenyl}-8-(trifluoromethyl)imidazo[1,2-a]pyridin-2-yl]methanamine]"
910 nM,69 nM,"CCc1nc2c(C(F)(F)F)cccn2c1-c1cccc(Oc2cccc(S(=O)(=O)CCCC#N)c2)c1 [Example 140, 4-[(3-{3-[2-ethyl-8-(trifluoromethyl)imidazo[1,2-a]pyridin-3-yl]phenoxy}phenyl)sulfonyl]butanenitrile]"
> 1000 nM,700 nM,"CCc1nc2c(C(F)(F)F)cccn2c1-c1cccc(Oc2ccc(C#N)c(S(C)(=O)=O)c2)c1 [Example 141, 4-{3-[2-ethyl-8-(trifluoromethyl)imidazo[1,2-a]pyridin-3-yl]phenoxy}-2-(methylsulfonyl)benzonitrile]"
> 1000 nM,> 1000 nM,"Cc1nc2c(C(F)(F)F)cccn2c1-c1cccc(Oc2ccc(C#N)c(S(C)(=O)=O)c2)c1 [Example 142, 2-(methylsulfonyl)-4-{3-[2-methyl-8-(trifluoromethyl)imidazo[1,2-a]pyridin-3-yl]phenoxy}benzonitrile]"
